For this experiment, the system named is P. falciparum (NF54-Mal8p1.16-GFP-Luc) late-stage gametocytes. In words: microbe, parasite or virus in culture. The experiment is classed as cell-based, Plasmodium falciparum. As for the experimental part: Gametocytes were produced as per [Reader et al. (2015]; [2021)] from P. falciparum NF54-Mal8p1.16-GFP-Luc ([Adjalley et al., 2011]), and each batch was validated for viability and functionality before use. […] Drug assays were set up on day 10 (representing late gametocytes, >90% stage IV/V gametocytes) using a 2–3% gametocytemia, 1.5% hematocrit culture. The drug pressure was for 48 h under stationary, hypoxic conditions (90% N2, 5% O2, and 5% CO2) at 37°C. Luciferase activity was determined in 30 μL parasite lysates by adding 30 μL luciferin substrate (Promega Luciferase Assay System) at room temperature and detection of resultant bioluminescence at an integration constant of 10 s with the GloMax®-Multi + Detection System with Instinct® Software. Methylene blue (5 μM) and an internal control (MMV390048, 5 μM) were routinely included as controls.

Experimental findings from publication PMC9119314 (Frontiers in Pharmacology, 2022) are described below.

SMILES strings stand for the structures. “And” between values parts separate entries of the source, which are not always exact repeats. Equal values may be shown once.

As to `C[n+]1c2ccccc2cc2[n-]c3c(I)cc(I)cc3c21` [Compound 6, 7,9-diiodocryptolepine], the concentration for half-maximal inhibition (IC50) (Plasmodium falciparum, NF54, 48 h, read-out: Activity against late-stage gametocytes IC50) came out at 2200 ± 20 nM. Besides, the “Selectivity index (SI), late-stage gametocytes with respect to Hep G cells” value (SI with respect to Hep G cells) was 13 and 12.8.
